Target: T1, ΔF508-CFTR (Homo sapiens, UniProt P13569, DEL508-508)
T1 construct: expressed in transfected cells; host or cells: NIH3T3 mouse fibroblasts stably expressing ΔF508-CFTR for the optical, whole-cell and single-channel assays; Fisher rat epithelial (FRT) cells for Ussing chamber follow-up
Assay: Assays for ΔF508-CFTR correction and potentiator properties (membrane potential optical and electrophysiological methods)
Type: cell-based
Conditions: CFTR modulation; for % Activity: % Efficacy; for EC50: tested using the above methods
Method in brief: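 NIH3T3 mouse fibroblasts stably expressing ΔF508-CFTR were used, with membrane potential read by DiSBAC2(3)/CC2-DMPE FRET on VIPR. Correctors: 16 h compound exposure at 37 °C, then activation with forskolin plus genistein in Cl⁻-free medium. Potentiators: cells held 24 h at 27 °C, compound added in Cl⁻-free medium, 2-10 μM forskolin 22 s later (final Cl⁻ 28 mM).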

T1 sequence (P13569 with tags, fused parts or gaps DEL508-508): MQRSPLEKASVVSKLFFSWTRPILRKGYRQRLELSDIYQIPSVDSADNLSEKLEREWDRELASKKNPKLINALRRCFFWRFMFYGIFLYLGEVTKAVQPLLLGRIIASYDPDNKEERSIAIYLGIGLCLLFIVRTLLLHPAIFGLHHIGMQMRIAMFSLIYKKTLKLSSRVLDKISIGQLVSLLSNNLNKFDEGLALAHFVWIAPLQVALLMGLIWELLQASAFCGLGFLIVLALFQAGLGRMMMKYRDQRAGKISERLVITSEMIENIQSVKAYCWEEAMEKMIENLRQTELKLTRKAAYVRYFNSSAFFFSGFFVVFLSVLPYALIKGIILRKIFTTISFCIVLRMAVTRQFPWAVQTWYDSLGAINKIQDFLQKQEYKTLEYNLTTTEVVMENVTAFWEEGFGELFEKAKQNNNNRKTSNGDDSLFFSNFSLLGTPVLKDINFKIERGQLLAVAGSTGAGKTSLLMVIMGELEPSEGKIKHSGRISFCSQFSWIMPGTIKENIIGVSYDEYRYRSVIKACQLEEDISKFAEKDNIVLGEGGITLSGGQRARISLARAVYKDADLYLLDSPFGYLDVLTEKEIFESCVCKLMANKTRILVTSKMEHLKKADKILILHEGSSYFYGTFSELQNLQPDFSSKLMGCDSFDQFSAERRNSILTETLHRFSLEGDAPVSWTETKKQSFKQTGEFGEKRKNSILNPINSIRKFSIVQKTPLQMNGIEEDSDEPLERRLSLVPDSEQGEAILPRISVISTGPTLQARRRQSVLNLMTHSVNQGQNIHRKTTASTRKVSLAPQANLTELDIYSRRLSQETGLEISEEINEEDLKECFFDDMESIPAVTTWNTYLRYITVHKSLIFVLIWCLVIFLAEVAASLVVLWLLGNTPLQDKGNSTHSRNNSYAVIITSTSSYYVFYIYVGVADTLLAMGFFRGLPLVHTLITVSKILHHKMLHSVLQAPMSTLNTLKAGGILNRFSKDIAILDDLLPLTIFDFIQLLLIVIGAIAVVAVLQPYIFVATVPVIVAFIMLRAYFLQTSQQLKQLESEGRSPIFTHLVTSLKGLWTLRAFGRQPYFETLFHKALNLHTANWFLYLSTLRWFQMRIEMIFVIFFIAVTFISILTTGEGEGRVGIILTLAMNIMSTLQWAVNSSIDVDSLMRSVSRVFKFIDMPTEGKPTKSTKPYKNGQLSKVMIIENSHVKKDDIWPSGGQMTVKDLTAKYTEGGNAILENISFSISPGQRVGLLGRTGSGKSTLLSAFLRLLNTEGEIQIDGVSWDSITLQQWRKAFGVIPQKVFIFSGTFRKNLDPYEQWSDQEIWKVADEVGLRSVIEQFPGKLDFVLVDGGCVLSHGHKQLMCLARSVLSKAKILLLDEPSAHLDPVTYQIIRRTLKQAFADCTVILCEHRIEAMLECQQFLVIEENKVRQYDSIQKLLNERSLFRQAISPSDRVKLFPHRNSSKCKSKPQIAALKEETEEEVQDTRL

% Activity	EC50 [µM]	SMILES
++ (“++” means between 25% to 100%)	10 to 25	O=C(Nc1ncc(Cc2ccccc2)o1)c1ccccc1 [compound 141]
++ (“++” means between 25% to 100%)	< 10	CCC(C(=O)Nc1ncc(Cc2ccc(Cl)cc2)o1)c1ccccc1 (stereo not shown) [compound 146]
++ (“++” means between 25% to 100%)	< 10	CCC(C)C(C(=O)Nc1ncc(Cc2ccc(Cl)cc2)o1)c1ccccc1 (stereo not shown) [compound 147]
++ (“++” means between 25% to 100%)	10 to 25	O=C(Nc1ncc(Cc2ccc(Cl)cc2)o1)c1ccccc1 [compound 150]
++ (“++” means between 25% to 100%)	10 to 25	O=C(Nc1ncc(Cc2cccc(Cl)c2)o1)C1Cc2ccccc21 (stereo not shown) [compound 152]
++ (“++” means between 25% to 100%)	< 10	CCC(C(=O)Nc1ncc(Cc2cccc(Cl)c2)o1)c1ccccc1 (stereo not shown) [compound 154]
++ (“++” means between 25% to 100%)	< 10	O=C(Nc1ncc(Cc2cccc(Cl)c2)o1)C(c1ccccc1)C1CCCC1 (stereo not shown) [compound 156]
++ (“++” means between 25% to 100%)	< 10	O=C(Cc1ccccc1)Nc1ncc(Cc2cccc(Cl)c2)o1 [compound 157]
++ (“++” means between 25% to 100%)	< 10	O=C(Nc1nc(-c2ccccc2Cl)cs1)c1ccccc1 [compound 159]
++ (“++” means between 25% to 100%)	25 to 60	N#Cc1ccc(-c2csc(NC(=O)c3ccccc3)n2)cc1 [compound 161]
++ (“++” means between 25% to 100%)	10 to 25	CC(C(=O)Nc1nc(-c2ccccc2)cs1)c1ccccc1 (stereo not shown) [compound 166]
++ (“++” means between 25% to 100%)	< 10	CC(C)C(C(=O)Nc1nc(-c2ccccc2)cs1)c1ccccc1 (stereo not shown) [compound 168]
++ (“++” means between 25% to 100%)	< 10	O=C(Nc1nc(-c2ccccc2)cs1)C(c1ccccc1)C1CCCC1 (stereo not shown) [compound 169]
++ (“++” means between 25% to 100%)	< 10	COC(=O)c1ccccc1C(=O)Nc1nc(-c2ccccc2)cs1 [compound 171]
+++ (“+++” means >100%)	< 10	CC(C(=O)Nc1nc(-c2ccccc2)c(-c2ccccc2)s1)c1ccccc1 (stereo not shown) [compound 172]
++ (“++” means between 25% to 100%)	< 10	CCC(C(=O)Nc1nc(-c2ccccc2)c(-c2ccccc2)s1)c1ccccc1 (stereo not shown) [compound 173]
++ (“++” means between 25% to 100%)	< 10	CC(C)C(C(=O)Nc1nc(-c2ccccc2)c(-c2ccccc2)s1)c1ccccc1 (stereo not shown) [compound 174]
++ (“++” means between 25% to 100%)	< 10	O=C(Nc1nc(-c2ccccc2)c(-c2ccccc2)s1)C(c1ccccc1)C1CCCC1 (stereo not shown) [compound 175]
+++ (“+++” means >100%)	< 10	COC(=O)c1ccccc1C(=O)Nc1nc(-c2ccccc2)c(-c2ccccc2)s1 [compound 178]
++ (“++” means between 25% to 100%)	10 to 25	COc1ccccc1Cc1cnc(NC(=O)C(c2ccccc2)C2CCCCC2)o1 (stereo not shown) [compound 179]
++ (“++” means between 25% to 100%)	25 to 60	COc1ccccc1Cc1cnc(NC(=O)C2Cc3ccccc32)o1 (stereo not shown) [compound 181]
++ (“++” means between 25% to 100%)	25 to 60	COc1ccccc1Cc1cnc(NC(=O)C(C)c2ccccc2)o1 (stereo not shown) [compound 182]
++ (“++” means between 25% to 100%)	25 to 60	O=C(Nc1ncc(Cc2ccccc2Cl)o1)C1Cc2ccccc21 (stereo not shown) [compound 188]
++ (“++” means between 25% to 100%)	< 10	CCC(C)C(C(=O)Nc1ncc(Cc2ccccc2Cl)o1)c1ccccc1 (stereo not shown) [compound 191]
++ (“++” means between 25% to 100%)	10 to 25	CC(C)C(C(=O)Nc1ncc(Cc2ccccc2Cl)o1)c1ccccc1 (stereo not shown) [compound 193]
++ (“++” means between 25% to 100%)	< 10	O=C(Nc1ncc(Cc2ccccc2Cl)o1)c1ccccc1 [compound 195]
++ (“++” means between 25% to 100%)	< 10	CC(C(=O)Nc1nc(-c2ccccc2)c(-c2ccccc2)s1)N1CCN(S(=O)(=O)c2ccc(Cl)cc2)CC1 (stereo not shown) [compound 197]

More lines, now with the values behind:

SMILES	% Activity	EC50 [µM]
O=C(Nc1ncc(Cc2ccccc2)s1)C(c1ccccc1)C1CCCCC1 (stereo not shown) [compound 139]	++ (“++” means between 25% to 100%)	< 10
COc1ccccc1Cc1cnc(NC(=O)C2c3ccccc3Oc3ccccc32)s1 [compound 140]	++ (“++” means between 25% to 100%)	< 10
O=C(Nc1ncc(Cc2ccc(Cl)cc2)o1)C(c1ccccc1)C1CCCCC1 (stereo not shown) [compound 142]	++ (“++” means between 25% to 100%)	< 10
O=C(Nc1ncc(Cc2ccc(Cl)cc2)o1)C(c1ccccc1)c1ccccc1 [compound 143]	++ (“++” means between 25% to 100%)	25 to 60
O=C(Nc1ncc(Cc2ccc(Cl)cc2)o1)C1Cc2ccccc21 (stereo not shown) [compound 145]	++ (“++” means between 25% to 100%)	10 to 25
O=C(Nc1ncc(Cc2ccc(Cl)cc2)o1)C(c1ccccc1)C1CCCC1 (stereo not shown) [compound 148]	++ (“++” means between 25% to 100%)	< 10
O=C(Cc1ccccc1)Nc1ncc(Cc2ccc(Cl)cc2)o1 [compound 149]	++ (“++” means between 25% to 100%)	10 to 25
O=C(Nc1ncc(Cc2cccc(Cl)c2)o1)C(c1ccccc1)C1CCCCC1 (stereo not shown) [compound 151]	++ (“++” means between 25% to 100%)	< 10
CC(C(=O)Nc1ncc(Cc2cccc(Cl)c2)o1)c1ccccc1 (stereo not shown) [compound 153]	++ (“++” means between 25% to 100%)	< 10
CCC(C)C(C(=O)Nc1ncc(Cc2cccc(Cl)c2)o1)c1ccccc1 (stereo not shown) [compound 155]	++ (“++” means between 25% to 100%)	< 10
O=C(Nc1ncc(Cc2cccc(Cl)c2)o1)c1ccccc1 [compound 158]	++ (“++” means between 25% to 100%)	–
O=C(Nc1nc(-c2cccc(Cl)c2)cs1)c1ccccc1 [compound 160]	+++ (“+++” means >100%)	10 to 25
COc1ccc(-c2csc(NC(=O)c3ccccc3)n2)c(OC)c1 [compound 162]	++ (“++” means between 25% to 100%)	25 to 60
O=C(Nc1nc(-c2ccc(N3CCCC3)cc2)cs1)c1ccccc1 [compound 163]	++ (“++” means between 25% to 100%)	10 to 25
O=C(Nc1nc(-c2ccc3c(c2)OCO3)cs1)c1ccccc1 [compound 164]	++ (“++” means between 25% to 100%)	10 to 25
O=C(Nc1nc(-c2ccc(Cl)cc2)c(-c2ccccc2)s1)c1ccccc1 [compound 165]	+++ (“+++” means >100%)	< 10

SMILES	% Activity	EC50 [µM]
CCC(C(=O)Nc1nc(-c2ccccc2)cs1)c1ccccc1 (stereo not shown) [compound 167]	++ (“++” means between 25% to 100%)	< 10
CCC(C)C(C(=O)Nc1nc(-c2ccccc2)cs1)c1ccccc1 (stereo not shown) [compound 170]	++ (“++” means between 25% to 100%)	< 10
CCC(C)C(C(=O)Nc1nc(-c2ccccc2)c(-c2ccccc2)s1)c1ccccc1 (stereo not shown) [compound 176]	++ (“++” means between 25% to 100%)	< 10
O=C(Nc1nc(-c2ccccc2)c(-c2ccccc2)s1)C(c1ccccc1)C1CCCCC1 (stereo not shown) [compound 177]	++ (“++” means between 25% to 100%)	10 to 25
COc1ccccc1Cc1cnc(NC(=O)C(c2ccccc2)c2ccccc2)o1 [compound 180]	++ (“++” means between 25% to 100%)	10 to 25
CCC(C(=O)Nc1ncc(Cc2ccccc2OC)o1)c1ccccc1 (stereo not shown) [compound 183]	++ (“++” means between 25% to 100%)	25 to 60
CCC(C)C(C(=O)Nc1ncc(Cc2ccccc2OC)o1)c1ccccc1 (stereo not shown) [compound 184]	++ (“++” means between 25% to 100%)	10 to 25
COc1ccccc1Cc1cnc(NC(=O)c2ccccc2)o1 [compound 185]	++ (“++” means between 25% to 100%)	10 to 25
O=C(Nc1ncc(Cc2ccccc2Cl)o1)C(c1ccccc1)C1CCCCC1 (stereo not shown) [compound 186]	++ (“++” means between 25% to 100%)	10 to 25
O=C(Nc1ncc(Cc2ccccc2Cl)o1)C(c1ccc(Cl)cc1)c1ccc(Cl)cc1 [compound 187]	++ (“++” means between 25% to 100%)	10 to 25
CC(C(=O)Nc1ncc(Cc2ccccc2Cl)o1)c1ccccc1 (stereo not shown) [compound 189]	++ (“++” means between 25% to 100%)	25 to 60
CCC(C(=O)Nc1ncc(Cc2ccccc2Cl)o1)c1ccccc1 (stereo not shown) [compound 190]	++ (“++” means between 25% to 100%)	25 to 60
O=C(Nc1ncc(Cc2ccccc2Cl)o1)C(c1ccccc1)C1CCCC1 (stereo not shown) [compound 192]	++ (“++” means between 25% to 100%)	10 to 25
O=C(Cc1ccccc1)Nc1ncc(Cc2ccccc2Cl)o1 [compound 194]	++ (“++” means between 25% to 100%)	25 to 60
COc1ccc(S(=O)(=O)N2CCN(C(C)C(=O)Nc3nc(-c4ccccc4)c(-c4ccccc4)s3)CC2)cc1 (stereo not shown) [compound 196]	++ (“++” means between 25% to 100%)	< 10

From US9249131B2, “Modulators of ATP-binding cassette transporters” (Vertex Pharmaceuticals Incorporated, priority 2003, dated 2016)
